Like-named read-outs stand apart in the source and are kept apart here.
Legend:
ACE2-S-RBD interaction = ACE2-S-RBD interaction (Severe acute respiratory syndrome coronavirus 2, UniProt P0DTC2); format: binding
[1] = tested on: VSV pseudovirus in 293T-hACE2 cells; format: cell-based, vesicular stomatitis virus
human ACE2 protein = human ACE2 protein (Homo sapiens, UniProt Q9BYF1); assay: SPR affinity screen, compounds over immobilized ACE2-His (CM5 chip); format: binding
[2] = Cytotoxicity in 293T-hACE2 cells (PrestoBlue / CCK); conditions: human, 293T-hACE2 cells
Experimental: (§1) First, cytotoxicity of 02B05 and 03D12 in 293T-hACE2 cells was assayed using PrestoBlue cell viability reagent. Briefly, the cells were seeded into 96-well plates and treated with different concentrations of compounds (a three-fold concentration series from 0.12 to 30 μM for 02B05 and 0.12 to 3.3 μM for 03D12). After incubation at 37 °C for 24 h, 10 μL PrestoBlue (10×) was added to each well and mixed well with the medium. After incubation at 37 °C for another 1 h, the fluorescent signals were read at an excitation wavelength of 560 nm and an emission wavelength of 590 nm, using the EnSpire multimode plate reader (Perkin Elmer, Waltham, MA, USA).

293T-hACE2 cells = assay: as above
Experimental: as §1

S-RBD-His protein = target: T1, S-RBD-His protein (Severe acute respiratory syndrome coronavirus 2, UniProt P0DTC2); assay: Isothermal titration calorimetry (ITC) of compound with S-RBD-His; format: binding, SARS-CoV-2; conditions: 25 °C, read-out: affinity measured by ITC
T1 construct: spike S-RBD protein with His tag (26.6 kDa)

[3] = tested on: SARS-CoV-2 pseudovirus in 293T-hACE2 cells; assay: Pseudovirus entry assay (luciferase), SARS-CoV-2 pseudovirus; format: cell-based
[4] = target: T2, SARS-CoV-2 spike S-RBD protein (Severe acute respiratory syndrome coronavirus 2, UniProt P0DTC2); assay: biochemical; format: binding
T2 construct: the S-RBD-mFc protein and ACE2-His protein were immobilized on a CM5 sensor chip; purchased Sino Biological (Beijing, China) 40592-V05H

human ACE2 protein, sequence (Q9BYF1 18-740 limits assumed): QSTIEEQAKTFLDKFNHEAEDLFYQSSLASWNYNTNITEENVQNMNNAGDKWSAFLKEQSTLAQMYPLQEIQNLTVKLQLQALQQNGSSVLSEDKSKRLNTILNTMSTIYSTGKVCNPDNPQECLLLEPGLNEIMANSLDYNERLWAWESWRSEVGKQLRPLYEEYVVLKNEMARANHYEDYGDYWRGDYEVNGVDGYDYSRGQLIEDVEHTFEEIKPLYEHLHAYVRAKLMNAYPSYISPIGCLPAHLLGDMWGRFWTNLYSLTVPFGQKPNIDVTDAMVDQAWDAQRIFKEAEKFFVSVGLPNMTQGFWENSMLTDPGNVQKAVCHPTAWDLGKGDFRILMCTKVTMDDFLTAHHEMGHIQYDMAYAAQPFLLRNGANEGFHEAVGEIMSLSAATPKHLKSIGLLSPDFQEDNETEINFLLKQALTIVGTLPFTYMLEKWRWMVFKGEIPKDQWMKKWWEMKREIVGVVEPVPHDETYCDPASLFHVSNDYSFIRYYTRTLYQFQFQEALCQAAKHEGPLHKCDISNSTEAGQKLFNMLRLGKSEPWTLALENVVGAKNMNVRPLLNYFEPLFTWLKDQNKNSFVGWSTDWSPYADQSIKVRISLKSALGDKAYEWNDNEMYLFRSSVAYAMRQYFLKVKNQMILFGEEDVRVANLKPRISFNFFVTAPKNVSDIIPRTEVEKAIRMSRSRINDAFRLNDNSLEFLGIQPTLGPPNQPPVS

Structure (SMILES) | blocking effect on binding of S-RBD to ACE2 (competitive inhibition) (ACE2-S-RBD interaction) | Kd (human ACE2 protein) [µM] | Kd [4] [µM] | koff [4] [s⁻¹] | kon [4] [M⁻¹ s⁻¹] | koff (human ACE2 protein; read-out: koff) [s⁻¹] | kon (human ACE2 protein; read-out: kon) [M⁻¹ s⁻¹] | other results
C[C@@]1(C(=O)O)CC[C@]2(C)CC[C@]3(C)C4=CC(=O)c5c(cc(O)c(O)c5C=O)[C@]4(C)CC[C@@]3(C)[C@@H]2C1 [02B05, demethylzeylasteral] | strongest blocking effect | 1.74 | 1.04 | 0.00244 | 2350 |  |  | effect on the transduction of VSV pseudovirus [1]: no effect; koff (human ACE2 protein): 0.00335 s⁻¹; kon (human ACE2 protein): 1990 M⁻¹ s⁻¹; CC50 at 24 h [2]: 7.67 ± 0.79 µM; cell viability and cell morphology (293T-hACE2 cells; at 0.37 μM): no changes were observed; cell morphology (293T-hACE2 cells; at 1.1 μM): affected; effect on the activity (viability) of 293T-hACE2 cells (293T-hACE2 cells; concentration no more than 1.1 μM, CCK and PrestoBlue): no significant effect; Kd (S-RBD-His protein): 2.09 µM; inhibition at 0.37 µM ([3]; Severe acute respiratory syndrome-related coronavirus, 0.37 μM, 293T-hACE2 cells, 24 h post infection, read-out: inhibition of transduction of SARS-CoV-2 pseudovirus): ~7%
C=CC(=O)Nc1cc(Nc2nccc(-c3c[nH]c4ccccc34)n2)c(OC)cc1N(C)CCN(C)C [02C15] |  |  | 9.11 | 0.0215 | 2360 |  |  | 
CC(C)c1cc(C(C)C)c(CC(=O)NS(=O)(=O)Oc2ccccc2)c(C(C)C)c1 [02C19] |  |  |  |  |  | 0.052 | 2340 | Kd (human ACE2 protein; target ACE2, SPR, 1:1 binding model for kinetics): 22.2 µM
Nc1nc(Nc2ccc3c(c2)CC[C@@H](N2CCCC2)CC3)nn1-c1cc2c(nn1)-c1ccccc1CCC2 [02J06] |  | 243 | 64.2 | 0.329 | 5120 | 0.636 | 2610 | 
COc1cc2c(Oc3ccc4[nH]c(C)cc4c3F)ncnc2cc1OCCCN1CCCC1 [03D12] | effective in blocking ACE2-S-RBD interaction | 3.43 | 4.59 | 0.00964 | 2100 | 0.00948 | 2760 | cytotoxicity (293T-hACE2 cells; concentration as high as 3.3 μM): not obvious; inhibitory activity in pseudovirus entry assay ([3]; any concentration tested (0.12 to 3.3 μM)): did not exhibit significant inhibitory activity; inhibitory activity in pseudovirus entry assay ([3]; at 3.3 μM): no obvious
Cl.N [ammonium chloride, reference compound] |  |  |  |  |  |  |  | infection by VSV pseudovirus [1]: almost abolished; infection by SARS-CoV-2 pseudovirus ([3]; positive control, 20 mM, 293T-hACE2 cells): almost abolished

Reference: article PMC7794844 (Molecules, 2020)
